Measured values: patent US9789096B2, “Methods and compositions for selective and targeted cancer therapy” (Board of Regents of the University of Texas System, priority 2013, dated 2017)

Experiments:
H2122 cells [1] = assay: Lipid ratios in H2122 cells by MS/MS; format: cell-based, human; settings: 100 nM, within 6 hours
Protocol: FIG. 8A. Covalent binders of SCD1 affect lipid ratios in human cancer cells. H2122 cells were treated with 100 nM SW208108 for the indicated times before a lipid extraction was performed. Lipid extracts were analyzed by MS/MS in order to determine the fractional content of 8 different lipid species including triacylglycerols (TAG) and diacylglycerols (DAG). In MS/1, the total number of carbons and number of unsaturated bonds was determined for all of the fatty acid chains. For example, TAG (50:3) is a triacylglycerol with 3 fatty acid chains that all together have 50 carbons and 3 unsaturated bonds. The mass for one of these fatty acids was determined in MS/2 and is listed as noted by its carbon length and unsaturated bond number using the same notation.
SCD1 catalyzes the dehydrogenation of saturated fatty acid-CoA's to form unsaturated fatty acid-CoA's. For example, the enzyme gets its name from the conversion of stearic acid-CoA to oleic acid-CoA. For this reason, inhibition SCD1 was expected to alter the ratio of saturated:unsaturated fatty acids.

H2122 cells [2] = assay: Covalent labelling of proteins in H2122 cells (click to fluorescent azide, SDS-PAGE); format: cell-based, human
Protocol: FIG. 7A. […] H2122 cells were treated with the indicated concentrations of SW208108 for 4 h followed by irradiation with a UV light or no irradiation. Cells were then lysed, protein was precipitated, resuspended in buffer and conjugated to an azide-containing dye using Cu catalysis following standard protocols. Samples were resolved under denaturing conditions on an SDS-PAGE gel and visualized using a fluorescent imager at the indicated wavelengths.
FIG. 7B. Chromone and Benzothiazole alkynes, like the oxalamide, covalently bind proteins of similar molecular weight. The arrows indicate a 37 kD and 30 kD band common to all three scaffolds.
To identify the target of the benzothiazoles, oxalamides, N-acyl ureas and chromones, we generated a potent oxalamide, SW208108, that features both a “crosslinker” and a “tag”. Upon exposure to UV light, the benzophenone group becomes reactive and was anticipated to crosslink to a nearby amino acid, and the alkyne serves as a “tag” by its capacity to react with an azide through “click chemistry”. Combining these features, we treated H2122 cells with various concentrations of SW208108 and either cultured them normally (“−UV”) or irradiated them briefly with UV light (“+UV”). Subsequently, we “clicked” the resulting lysate to a fluorescent azide, and detected multiple fluorescently labeled proteins on SDS-PAGE (FIG. 7A). […]

SCD1 = target: T1, SCD1 (Homo sapiens, UniProt O00767); assay: Covalent adduct formation in 293t cells transfected with SCD1 or CYP4F11; format: cell-based; set-up: expressed in transfected cells; host or cells: 293t cells
T1 sequence (O00767 1-359): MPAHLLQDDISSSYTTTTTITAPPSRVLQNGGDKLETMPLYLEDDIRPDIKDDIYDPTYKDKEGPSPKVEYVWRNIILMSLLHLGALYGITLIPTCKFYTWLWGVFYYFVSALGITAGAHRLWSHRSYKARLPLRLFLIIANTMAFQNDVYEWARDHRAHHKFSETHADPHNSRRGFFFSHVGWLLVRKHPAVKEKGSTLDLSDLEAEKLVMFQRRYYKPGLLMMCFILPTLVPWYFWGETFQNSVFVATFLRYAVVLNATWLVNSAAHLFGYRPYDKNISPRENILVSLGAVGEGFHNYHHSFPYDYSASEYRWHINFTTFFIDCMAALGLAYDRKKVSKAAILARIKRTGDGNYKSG
Text: FIGS. 10A-10F. Sensitive cells express high levels of CYP4 family members. FIG. 10A. relative expression levels of mRNA for a panel of cytochrome P450 enzymes from the cancer cell line encyclopedia (CCLE, http://www.broadinstitute.org/ccle) showing CYP4F11 in particular is highly expressed in 4 NSCLC lines that are sensitive to SCD1 inhibition. FIG. 10B. Western blot showing that CYP4F11 protein is expressed in all sensitive cell lines but not in the majority of insensitive cell lines. FIG. 10C. […] FIG. 10D. Cells were incubated with either a methoxy-containing oxalamide, which represents the pro-drug form, or the hydroxy containing oxalamide, which represents the active form of the drug. […] FIG. 10E. 293t cells were transfected with mammalian expression plasmids containing SCD1 or CYP4F11 as indicated. Cells were treated with either SW208108 or its demethylated congener, SW211666, and conjugated with a fluorescent dye as described in FIG. 7. Cells containing CYP4F11 form covalent adducts with both the pro-drug (methoxy) and drug form (demethylated, i.e. OH). […] FIG. 10F. Shown are the results of a tritium release assay in which tritiated water is produced from tritiated stearoyl CoA by the action of SCD1. […] By contrast, SW211666 but not SW208108 inhibits SCD1 in mouse preputial gland, which lacks CYP4F11 (bottom). […]

4 sensitive cell lines = assay: Rescue of toxicity by sodium oleate in 4 sensitive lines; format: cell-based, human; settings: 100 μM sodium oleate
Text: FIGS. 8D-8E. Sodium oleate rescues the toxicity of SCD1 inhibitors.
Consistent with this interpretation, the toxicity of SW208108 against 4 sensitive cell lines was fully rescued by adding sodium oleic acid to the culture media (FIG. 8D). Moreover, a commercially available SCD1 inhibitor (Cayman chemicals), originally described by Liu et al (compound 28c in the Journal of Medicinal Chemistry, 2007, 50, 3086-3100) was likewise toxic to the same 4 non-small cell lung cancer cell lines (FIG. 8E).

C#CCOc1ccc(C(=O)c2ccc(NC(=O)C(=O)NCCc3ccc(OC)cc3)cc2)cc1 [SW208108]
saturated vs unsaturated fatty acids in neutral lipids (H2122 cells [1]): increased the percentage of neutral lipids containing saturated fatty acids | covalent modification of proteins (p37, p30) in H2122 cells without UV (H2122 cells [2]): covalently cross links proteins | covalent modification of SCD1 in 293t cells in the absence of CYP4F11 (SCD1; SCD1 expressed alone): unable to covalently modify SCD1 | covalent modification of SCD1 in 293t cells expressing SCD1 and CYP4F11 (SCD1; with or without HET0016): covalently modify SCD1 | toxicity against 4 sensitive cell lines with sodium oleic acid (4 sensitive cell lines): fully rescued
